Measurements: ChEMBL document CHEMBL1151093, “6,7,8,9-tetrahydro-3-hydroxy-1H-1-benzazepine-2,5-diones via a diels-alder reaction:antagonists with a non-planar hydrophobic region for NMDA receptor glycine sites” (Bioorg Med Chem Lett, 1995)

Molecular target: Glutamate receptor ionotropic, NMDA 1 (Rattus norvegicus, UniProt P35439)
Assay: Tested for the inhibition of [3H]5,7-dichlorokynurenic acid (DCKA) binding to NMDA receptor

Compound | IC50
O=c1cc(O)c2ccc(Cl)cc2[nH]c1=O | 13 nM
O=c1cc(O)c2c([nH]c1=O)CCCC2 | 3210 nM
O=c1cc(O)c2ccccc2[nH]c1=O | 827 nM

More lines, now with the values ahead:

IC50 | Compound
228 nM | CC1Cc2[nH]c(=O)c(=O)cc(O)c2CC1C (stereo not given)
131 nM | O=c1cc(O)c2c([nH]c1=O)CC(Cl)C(Cl)C2 (stereo not given)
